Data published in patent publication US8728797B2, “Yeast membrane protein expression system and its application in drug screening” (priority 2001, dated 2014).
Values after ≈ are worked out from the molar mass of the structure shown. Marks after values point to notes of the source that are not given here.

Legend:
[1] = target: S. cerevisiae plasma membrane H^+-ATPase (Pma1p) (Saccharomyces cerevisiae, UniProt P05030); assay: Plasma membrane H+-ATPase inhibition; type: biochemical; conditions: read-out: 150 for plasma membrane H^+-ATPase
[2] = tested on: AD124567 (Pdr5p-overexpressing); assay: Disk drug susceptibility assay of chemosensitisation to fluconazole; type: cell-based, S. cerevisiae; conditions: 120 μg/ml fluconazole, 47 nanomole peptide on disk
Protocol: (A) Checkerboard drug susceptibility assay of AD124567 in the presence of the indicated concentrations of fluconazole and KN20. (B) Disk drug susceptibility assay of AD124567. This assay was conducted, as described in Materials and methods for example 4, in the absence or presence of fluconazole (120 μg/ml), and in the presence of (1) KN0 (47 nanomole), (2) KN20 (47 nanomole) or (0) control amounts of DMSO applied to disks
Drug susceptibility was measured using disk assays on CSM-URA plates (containing 1.5% w/v agar). Plates were seeded with yeast cells suspended in top agar (5 ml, 10^5 cells/ml). For the uracil-dependent parental strain, agar was supplemented with 0.02% uridine. Five microliters of drug solution or solvent control were spotted onto sterile Whatman paper disks on the top agar. […]

[3] = tested on: S. cerevisiae AD1002 (CaCdr1p); assay: Checkerboard chemosensitisation to fluconazole; type: cell-based
Protocol: (§1) (A) Checkerboard drug susceptibility assay of AD1002. This assay was conducted as described in Materials and methods in the presence of the indicated concentrations of fluconazole and KN20. (B) Disk drug susceptibility assay of AD1002. This assay was conducted, as described in Materials and methods for Example 4, in the absence or presence of 5 μg/ml fluconazole, with (1) KN0 (12 nanomole), (2) KN20 (12 nanomole) or (0) control amounts of DMSO applied to the disks. (C) Checkerboard drug susceptibility assay of ATCC 10261. This assay was conducted, as described in Material and methods for Example 4, in the presence of the indicated concentrations of fluconazole and KN20. D indicates cell death as measured by a failure to recover any colony forming units when samples from microtitre plate wells were cultured on solid YPD medium.
(§2) Checkerboard drug susceptibility assays were used to measure the chemosensitisation of cells to fluconazole by test compounds such as Pdr5p inhibitors. Fluconazole concentration in the CSM-URA medium was varied in one dimension (between 0 and 80 μg/ml) and the concentration of the test compound was varied in the second dimension (between 0 and 40 μM). Cell inocula, growth conditions and the optical determination of growth were identical to standard liquid MIC determinations. The assays were conducted in 6 by 6 well arrays centred in a 96 well microtitre plate using buffered CSM-URA medium at pH 7.0, with fluconazole and/or peptide included in each well at the indicated concentration.

C. albicans ATCC10261 = assay: Checkerboard chemosensitisation to fluconazole; type: cell-based
Protocol: as §1, §2

AD-PDR5 (Pdr5p) = assay: Disk diffusion assay, AD-PDR5; type: cell-based, S. cerevisiae; conditions: AD-pABC as negative control, 30° C., 48 h
Protocol: (§3) The cells were spread on CSM-agar plates and exposed to the drugs or chemicals applied to filter disks and incubated at 30° C. for 48 h. The amounts of individual drugs are given in the Materials and Methods section of Example 3. Rhodamine 6G and rhodamine 123 were dissolved in ethanol and the other antifungals were dissolved in DMSO.
(§4) Drug susceptibility was measured using disk assays on CSM-URA plates (containing 1.5% w/v agar). Yeast cells (200 μl ml of 5×10^6 cells/ml) were spread on the plates. 10 μl of drug solution or solvent control were spotted onto sterile Whatman paper disks on the pre-spread plates. The following amounts (nmoles) of drugs were applied to individual disks: fluconazole, 633 (Pfizer Ltd., Sandwich, Kent, United Kingdom); itraconazole, 0.23 (Janssen); miconazole, 0.42 (Janssen); cycloheximide, 0.71 (Sigma); rhodamine 6G, 100 (Sigma, Penrose, Auckland, N. Z.); rhodamine 123, 125 (Sigma); cerulenin 4.5 (Sigma); 5-flucytosine 100 (Sigma); amphotericin B, 97 (E. R. Squibb & Sons, Princeton, N.J.); nystatin 65 (Sigma). Agar plates were incubated at 30° C. for 48 h or until clear growth inhibition zones were visible.

[4] = tested on: S. cerevisiae AD1-8 sec6-4; assay: MIC microdilution test, sec6-4 host; type: cell-based; conditions: Saccharomyces cerevisiae, AD18SEC64, 30° C.
Protocol: (§5) The MICs of antifungal agents for S. cerevisiae cells were determined by a microdilution test based on the macrodilution reference method of the National Committee for Clinical Laboratory Standards. Cells (10 μl cell suspension, 2×10^5 cells/ml) were inoculated into 90 μl CSM-URA, buffered with 10 mM 2-(N-morpholino)ethanesulfonic acid (MES) and 18 mM N-2-hydroxyethylpiperazine-N′-2-ethanesulfonic acid (HEPES), pH 7.0 and containing 0.67% (w/v) yeast nitrogen base (YNB) in microtitre plate wells. For the uracil-requiring strain AD1-8u^− the medium was supplemented with 0.02% (w/v) uridine. The wells contained, in […], doubling dilutions of antifungal agents (final concentrations: fluconazole, 40-0.078 μg/ml; itraconazole and ketoconazole, 8-0.016 μg/ml). The microtitre plates were incubated at 30° C. for 48 h with shaking and then the growth of cells in individual wells (OD590) was measured with a microplate reader (EL 340, Bio-Tek, Winooski, Vt.). The MIC80 was the lowest concentration of drug that inhibited growth yield by at least 80% compared to a no-drug control.

[5] = tested on: S. cerevisiae AD1-8u^− hyper-expressing CDR1-1; assay: MIC, CDR1 allele 1 hyper-expressed; type: cell-based; conditions: Saccharomyces cerevisiae; hyper-expression of CDR1-1 allele
Protocol: as §5

AD-BEN^R (Ben^Rp) = assay: Disk diffusion assay, AD-BEN^R; type: cell-based, S. cerevisiae; conditions: AD-pABC as negative control, 30° C., 48 h
Protocol: as §3, §4

Sequence of S. cerevisiae plasma membrane H^+-ATPase (Pma1p) (P05030 whole entry): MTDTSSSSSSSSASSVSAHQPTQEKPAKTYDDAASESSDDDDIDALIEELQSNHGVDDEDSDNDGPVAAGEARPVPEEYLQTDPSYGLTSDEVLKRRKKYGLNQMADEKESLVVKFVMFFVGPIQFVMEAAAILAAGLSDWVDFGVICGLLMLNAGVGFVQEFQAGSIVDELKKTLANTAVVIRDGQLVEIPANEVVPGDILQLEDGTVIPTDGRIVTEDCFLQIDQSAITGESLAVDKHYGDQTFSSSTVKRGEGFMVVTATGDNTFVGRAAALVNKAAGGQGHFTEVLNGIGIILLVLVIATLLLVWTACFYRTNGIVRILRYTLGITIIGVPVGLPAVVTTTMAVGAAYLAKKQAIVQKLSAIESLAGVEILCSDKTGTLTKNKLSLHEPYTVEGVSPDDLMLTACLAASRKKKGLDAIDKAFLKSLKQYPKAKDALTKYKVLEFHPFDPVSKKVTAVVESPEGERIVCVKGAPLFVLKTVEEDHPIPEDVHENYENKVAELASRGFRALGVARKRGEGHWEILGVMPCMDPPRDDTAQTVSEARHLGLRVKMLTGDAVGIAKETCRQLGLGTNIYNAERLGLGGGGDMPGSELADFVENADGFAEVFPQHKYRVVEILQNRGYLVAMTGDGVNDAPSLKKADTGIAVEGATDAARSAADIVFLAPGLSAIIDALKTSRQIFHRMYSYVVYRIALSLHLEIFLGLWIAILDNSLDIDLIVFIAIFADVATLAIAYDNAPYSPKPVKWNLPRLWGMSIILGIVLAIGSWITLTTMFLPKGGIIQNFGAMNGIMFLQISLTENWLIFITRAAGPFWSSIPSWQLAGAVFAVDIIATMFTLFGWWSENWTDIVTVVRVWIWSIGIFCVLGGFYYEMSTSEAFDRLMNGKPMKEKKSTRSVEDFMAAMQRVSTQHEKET

| Compound | IC50 [1] | chemosensitisation to fluconazole in disk assay [2] | growth of AD1002 with KN20 alone ([3]; 10 μM KN20, without fluconazole, pH 7.0) | growth of AD1002 with fluconazole plus KN20 ([3]; 10 μg/ml fluconazole plus 10 μM KN20) | growth of AD1002 with KN20 alone ([3]; 20 μM peptide alone, 48 h) | Chemosensitising concentration KN20 ([3]; AD1002 (CaCdr1p)) | Fold-sensitisation by KN20 (For FCZ MIC) ([3]; AD1002 (CaCdr1p)) | Chemosensitising concentration KN20 (C. albicans ATCC10261; C. albicans ATCC10261) | Fold-sensitisation by KN20 (For FCZ MIC) (C. albicans ATCC10261; C. albicans ATCC10261, resistant tail eliminated) | resistance/sensitivity in disk diffusion assay (AD-PDR5 (Pdr5p)) | MIC80 [4] | MIC [5] | resistance/sensitivity in disk diffusion assay (AD-BEN^R (Ben^Rp)) | Chemosensitising concentration FCZ ([3]; AD1002 (CaCdr1p), with KN20) | Chemosensitising concentration FCZ (C. albicans ATCC10261) |
| --- | --- | --- | --- | --- | --- | --- | --- | --- | --- | --- | --- | --- | --- | --- | --- |
| D-octapeptide NH2-Asn-Trp-Trp-Lys-Val-Arg-Arg-Arg-CONH2 with a single 4-methoxy-2,3,6-trimethylbenzenesulphonyl (Mtr) substituent on one tryptophan sidechain; Pdr5p inhibitor [KN20] | 10 µM | chemosensitisation | completely resistant | completely abolished growth | did not affect overall growth | 10 µM | 4 fold | 80 µM | 64^a fold | – | – | – | – | – | – |
| OC(Cn1cncn1)(Cn1cncn1)c1ccc(F)cc1F [fluconazole] | – | – | – | – | – | – | – | – | – | resistances | 0.5 µg/mL (≈ 1.63 µM) | 400 µg/mL (≈ 1310 µM) | resistant | 10 µg/mL | 2 µg/mL |
